From PubChem BioAssay AID2060616 (Molecular Pharmacology Branch, DTP, NCI, 2025)

Tested on: 377384-186-R-J1-PDC complex spheroid viability
Assay: Anticancer human tumor 377384-186-R-J1-PDC patient-derived pancreatic carcinoma cell line growth inhibition [CLK]
Details: for IC50: curve of first compound; for viability, T/C: stronger effect = lower value
Summary of the method: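 Multi-cell-type spheroids combined patient-derived tumor cells with HUVEC endothelial cells and human mesenchymal stem cells. Paired agents were dosed in half-log steps down from about clinical Cmax, or from 10 microM where Cmax was unknown.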

[1] = second compound 0.0316 µM, first compound 0.0316 µM
[2] = second compound 0.0316 µM, first compound 0.1 µM
[3] = second compound 0.0316 µM, first compound 0.316 µM
[4] = second compound 0.0316 µM, first compound 1 µM
[5] = second compound 0.1 µM, first compound 0.0316 µM
[6] = second compound 0.1 µM, first compound 0.1 µM
[7] = second compound 0.1 µM, first compound 0.316 µM
[8] = second compound 0.1 µM, first compound 1 µM
[9] = second compound 0.316 µM, first compound 0.0316 µM
[10] = second compound 0.316 µM, first compound 0.1 µM
[11] = second compound 0.316 µM, first compound 0.316 µM
[12] = second compound 0.316 µM, first compound 1 µM
[13] = second compound 1 µM, first compound 0.0316 µM
[14] = second compound 1 µM, first compound 0.1 µM
[15] = second compound 1 µM, first compound 0.316 µM
[16] = second compound 1 µM, first compound 1 µM
[17] = second compound 3.16 µM, first compound 0.0316 µM
[18] = second compound 3.16 µM, first compound 0.1 µM
[19] = second compound 3.16 µM, first compound 0.316 µM
[20] = second compound 3.16 µM, first compound 1 µM
[21] = second compound 10 µM, first compound 0.0316 µM
[22] = second compound 10 µM, first compound 0.1 µM
[23] = second compound 10 µM, first compound 0.316 µM
[24] = second compound 10 µM, first compound 1 µM
[25] = second compound 0.0316 µM, first compound 0.00316 µM
[26] = second compound 0.0316 µM, first compound 0.01 µM
[27] = second compound 0.1 µM, first compound 0.00316 µM
[28] = second compound 0.1 µM, first compound 0.01 µM
[29] = second compound 0.316 µM, first compound 0.00316 µM
[30] = second compound 0.316 µM, first compound 0.01 µM
[31] = second compound 1 µM, first compound 0.00316 µM
[32] = second compound 1 µM, first compound 0.01 µM
[33] = second compound 3.16 µM, first compound 0.00316 µM
[34] = second compound 3.16 µM, first compound 0.01 µM
[35] = second compound 10 µM, first compound 0.00316 µM
[36] = second compound 10 µM, first compound 0.01 µM
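Further: spheroids exposed to agents for 7 days before reading.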
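Wherever viability, T/C is given: luminescence signal used as a stand-in for viable cells.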

CC(Nc1ccc2c(c1)OCCn1cc(N3C(=O)OCC3C(F)F)nc1-2)C(N)=O (stereo unspecified) + CNC(=O)c1ccc(Nc2nc(OC3CCCC3)c3c(-c4ccc5nc(C)oc5c4)c[nH]c3n2)c(OC)c1
IC50 (second compound 0.0316 µM): 905 nM
IC50 (second compound 0.1 µM): 221 nM
IC50 (second compound 0.316 µM): < 31.6 nM
IC50 (second compound 1 µM): < 31.6 nM
IC50 (second compound 3.16 µM): < 31.6 nM
IC50 (second compound 10 µM): < 31.6 nM
viability, T/C [1]: 84.8%
viability, T/C [2]: 90.6%
viability, T/C [3]: 71.2%
viability, T/C [4]: 49.1%
viability, T/C (second compound 0.0316 µM, first compound 3.16 µM): 41.6%
viability, T/C (second compound 0.0316 µM, first compound 10 µM): 41.2%
viability, T/C [5]: 59%
viability, T/C [6]: 61.5%
viability, T/C [7]: 41.7%
viability, T/C [8]: 42.8%
viability, T/C (second compound 0.1 µM, first compound 3.16 µM): 33.4%
viability, T/C (second compound 0.1 µM, first compound 10 µM): 29%
viability, T/C [9]: 21.1%
viability, T/C [10]: 20.5%
viability, T/C [11]: 18.4%
viability, T/C [12]: 15%
viability, T/C (second compound 0.316 µM, first compound 3.16 µM): 13.5%
viability, T/C (second compound 0.316 µM, first compound 10 µM): 14%
viability, T/C [13]: 18.1%
viability, T/C [14]: 14.4%
viability, T/C [15]: 14.4%
viability, T/C [16]: 14.8%
viability, T/C (second compound 1 µM, first compound 3.16 µM): 12.8%
viability, T/C (second compound 1 µM, first compound 10 µM): 12.6%
viability, T/C [17]: 17.7%
viability, T/C [18]: 18.5%
viability, T/C [19]: 18%
viability, T/C [20]: 14.2%
viability, T/C (second compound 3.16 µM, first compound 3.16 µM): 13.1%
viability, T/C (second compound 3.16 µM, first compound 10 µM): 11.8%
viability, T/C [21]: 16.1%
viability, T/C [22]: 17.5%
viability, T/C [23]: 14.1%
viability, T/C [24]: 15.6%
viability, T/C (second compound 10 µM, first compound 3.16 µM): 13.4%
viability, T/C (second compound 10 µM, first compound 10 µM): 11.6%

CCN1CCN(Cc2ccc(Nc3ncc(F)c(-c4cc(F)c5nc(C)n(C(C)C)c5c4)n3)nc2)CC1 + CNC(=O)c1ccc(Nc2nc(OC3CCCC3)c3c(-c4ccc5nc(C)oc5c4)c[nH]c3n2)c(OC)c1
IC50 (second compound 0.0316 µM): 299 nM
IC50 (second compound 0.1 µM): 17.4 nM
IC50 (second compound 0.316 µM): < 3.16 nM
IC50 (second compound 1 µM): < 3.16 nM
IC50 (second compound 3.16 µM): < 3.16 nM
IC50 (second compound 10 µM): < 3.16 nM
viability, T/C [25]: 105%
viability, T/C [26]: 84.2%
viability, T/C [1]: 80%
viability, T/C [2]: 66.7%
viability, T/C [3]: 44.6%
viability, T/C [4]: 37.4%
viability, T/C [27]: 58.9%
viability, T/C [28]: 53.9%
viability, T/C [5]: 45.8%
viability, T/C [6]: 41.1%
viability, T/C [7]: 34.4%
viability, T/C [8]: 29.3%
viability, T/C [29]: 19.5%
viability, T/C [30]: 18.5%
viability, T/C [9]: 21.5%
viability, T/C [10]: 19.9%
viability, T/C [11]: 24.6%
viability, T/C [12]: 22.4%
viability, T/C [31]: 18.6%
viability, T/C [32]: 23.3%
viability, T/C [13]: 20.4%
viability, T/C [14]: 20.8%
viability, T/C [15]: 20.1%
viability, T/C [16]: 23.3%
viability, T/C [33]: 20.1%
viability, T/C [34]: 22.1%
viability, T/C [17]: 19.7%
viability, T/C [18]: 18.9%
viability, T/C [19]: 18.9%
viability, T/C [20]: 18.7%
viability, T/C [35]: 20.3%
viability, T/C [36]: 18%
viability, T/C [21]: 16.9%
viability, T/C [22]: 17.8%
viability, T/C [23]: 22%
viability, T/C [24]: 25.9%

COc1c(OCCCN2CCOCC2)ccc2c3n(c(=NC(=O)c4cnc(N)nc4)nc12)CCN3 + CNC(=O)c1ccc(Nc2nc(OC3CCCC3)c3c(-c4ccc5nc(C)oc5c4)c[nH]c3n2)c(OC)c1
IC50 (second compound 0.0316 µM): 29.9 nM
IC50 (second compound 0.1 µM): 12.2 nM
IC50 (second compound 0.316 µM): < 3.16 nM
IC50 (second compound 1 µM): < 3.16 nM
IC50 (second compound 3.16 µM): < 3.16 nM
IC50 (second compound 10 µM): < 3.16 nM
viability, T/C [25]: 74.8%
viability, T/C [26]: 66.1%
viability, T/C [1]: 47.6%
viability, T/C [2]: 33.9%
viability, T/C [3]: 23.1%
viability, T/C [4]: 14%
viability, T/C [27]: 63.3%
viability, T/C [28]: 54.5%
viability, T/C [5]: 35.7%
viability, T/C [6]: 27.5%
viability, T/C [7]: 17.4%
viability, T/C [8]: 12%
viability, T/C [29]: 19.1%
viability, T/C [30]: 19.1%
viability, T/C [9]: 14.5%
viability, T/C [10]: 14%
viability, T/C [11]: 11.6%
viability, T/C [12]: 10.4%
viability, T/C [31]: 19%
viability, T/C [32]: 16.6%
viability, T/C [13]: 16.8%
viability, T/C [14]: 12.2%
viability, T/C [15]: 10.7%
viability, T/C [16]: 9.69%
viability, T/C [33]: 19.9%
viability, T/C [34]: 17.6%
viability, T/C [17]: 13.6%
viability, T/C [18]: 12.9%
viability, T/C [19]: 9.91%
viability, T/C [20]: 9.78%
viability, T/C [35]: 21.4%
viability, T/C [36]: 17.7%
viability, T/C [21]: 14.4%
viability, T/C [22]: 11.6%
viability, T/C [23]: 10.8%
viability, T/C [24]: 9.14%
